# Laboratory results reported in patent US10206394B2, “Herbicidal compounds” (Syngenta Participations AG, priority 2014, dated 2019).
# Read-outs that look alike come from different tables or passages of the source.
# How the values were obtained:
# Experiment in all cases: Glasshouse assay for herbicidal activity (pre- and post-emergence), percentage phytotoxicity
# Assay type in all cases: in vivo
# [1] = test system: Alopecurus myosuroides (ALOMY); details: Alopecurus myosuroides
# Method in brief: (§1)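 Pot-grown plants treated one day after sowing (pre-emergence) or at about 12 days (post-emergence); glasshouse at 24/18° C (warm) or 20/16° C (cool species) day/night, 16 h light, 65% humidity. Visual % phytotoxicity (0 = none, 100 = total damage) scored at 15 DAA post or 20 DAA pre.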
# [2] = test system: Avena fatua (AVEFA); details: Avena fatua
# Method in brief: as §1
# [3] = test system: Echinochloa crus-galli (ECHCG); details: Echinochloa crus-galli
# Method in brief: as §1
# [4] = test system: Lolium perenne (LOLPE); details: Lolium perenne
# Method in brief: as §1
# [5] = post-emergence, 360 h, Rate 250 g/ha, post-emergence, visual assessment 15 DAA, 100%=total damage, 0%=no damage, read-out: Post-emergence herbicidal activity (percentage phytotoxicity) ALOMY POST
# [6] = pre-emergence, 480 h, Rate 250 g/ha, pre-emergence, visual assessment 20 DAA, 100%=total damage, 0%=no damage, read-out: Pre-emergence herbicidal activity (percentage phytotoxicity) ALOMY PRE
# [7] = post-emergence, 360 h, Rate 250 g/ha, post-emergence, visual assessment 15 DAA, 100%=total damage, 0%=no damage, read-out: Post-emergence herbicidal activity (percentage phytotoxicity) AVEFA POST
# [8] = pre-emergence, 480 h, Rate 250 g/ha, pre-emergence, visual assessment 20 DAA, 100%=total damage, 0%=no damage, read-out: Pre-emergence herbicidal activity (percentage phytotoxicity) AVEFA PRE
# [9] = post-emergence, 360 h, Rate 250 g/ha, post-emergence, visual assessment 15 DAA, 100%=total damage, 0%=no damage, read-out: Post-emergence herbicidal activity (percentage phytotoxicity) ECHCG POST
# [10] = pre-emergence, 480 h, Rate 250 g/ha, pre-emergence, visual assessment 20 DAA, 100%=total damage, 0%=no damage, read-out: Pre-emergence herbicidal activity (percentage phytotoxicity) ECHCG PRE
# [11] = post-emergence, 360 h, Rate 250 g/ha, post-emergence, visual assessment 15 DAA, 100%=total damage, 0%=no damage, read-out: Post-emergence herbicidal activity (percentage phytotoxicity) LOLPE POST
# [12] = pre-emergence, 480 h, Rate 250 g/ha, pre-emergence, visual assessment 20 DAA, 100%=total damage, 0%=no damage, read-out: Pre-emergence herbicidal activity (percentage phytotoxicity) LOLPE PRE
# [13] = post-emergence, 360 h, Rate 250 g/ha, post-emergence, assessed visually 15 DAA, 100%=total damage, 0%=no damage, read-out: Post-emergence herbicidal activity (percentage phytotoxicity) ALOMY POST
# [14] = pre-emergence, 480 h, Rate 250 g/ha, pre-emergence, assessed visually 20 DAA, 100%=total damage, 0%=no damage, read-out: Pre-emergence herbicidal activity (percentage phytotoxicity) ALOMY PRE
# [15] = post-emergence, 360 h, Rate 250 g/ha, post-emergence, assessed visually 15 DAA, 100%=total damage, 0%=no damage, read-out: Post-emergence herbicidal activity (percentage phytotoxicity) AVEFA POST
# [16] = pre-emergence, 480 h, Rate 250 g/ha, pre-emergence, assessed visually 20 DAA, 100%=total damage, 0%=no damage, read-out: Pre-emergence herbicidal activity (percentage phytotoxicity) AVEFA PRE
# [17] = post-emergence, 360 h, Rate 250 g/ha, post-emergence, assessed visually 15 DAA, 100%=total damage, 0%=no damage, read-out: Post-emergence herbicidal activity (percentage phytotoxicity) ECHCG POST
# [18] = pre-emergence, 480 h, Rate 250 g/ha, pre-emergence, assessed visually 20 DAA, 100%=total damage, 0%=no damage, read-out: Pre-emergence herbicidal activity (percentage phytotoxicity) ECHCG PRE
# [19] = post-emergence, 360 h, Rate 250 g/ha, post-emergence, assessed visually 15 DAA, 100%=total damage, 0%=no damage, read-out: Post-emergence herbicidal activity (percentage phytotoxicity) LOLPE POST
# [20] = pre-emergence, 480 h, Rate 250 g/ha, pre-emergence, assessed visually 20 DAA, 100%=total damage, 0%=no damage, read-out: Pre-emergence herbicidal activity (percentage phytotoxicity) LOLPE PRE
# [21] = post-emergence, 360 h, POST-emergence, rate 250 g/ha, visual score 15 DAA (100%=total damage, 0%=no damage), read-out: Post-emergence herbicidal activity (percentage phytotoxicity) ALOMY POST
# [22] = pre-emergence, 480 h, PRE-emergence, rate 250 g/ha, visual score 20 DAA (100%=total damage, 0%=no damage), read-out: Pre-emergence herbicidal activity (percentage phytotoxicity) ALOMY PRE
# [23] = post-emergence, 360 h, POST-emergence, rate 250 g/ha, visual score 15 DAA (100%=total damage, 0%=no damage), read-out: Post-emergence herbicidal activity (percentage phytotoxicity) AVEFA POST
# [24] = pre-emergence, 480 h, PRE-emergence, rate 250 g/ha, visual score 20 DAA (100%=total damage, 0%=no damage), read-out: Pre-emergence herbicidal activity (percentage phytotoxicity) AVEFA PRE
# [25] = post-emergence, 360 h, POST-emergence, rate 250 g/ha, visual score 15 DAA (100%=total damage, 0%=no damage), read-out: Post-emergence herbicidal activity (percentage phytotoxicity) ECHCG POST
# [26] = pre-emergence, 480 h, PRE-emergence, rate 250 g/ha, visual score 20 DAA (100%=total damage, 0%=no damage), read-out: Pre-emergence herbicidal activity (percentage phytotoxicity) ECHCG PRE
# [27] = post-emergence, 360 h, POST-emergence, rate 250 g/ha, visual score 15 DAA (100%=total damage, 0%=no damage), read-out: Post-emergence herbicidal activity (percentage phytotoxicity) LOLPE POST
# [28] = pre-emergence, 480 h, PRE-emergence, rate 250 g/ha, visual score 20 DAA (100%=total damage, 0%=no damage), read-out: Pre-emergence herbicidal activity (percentage phytotoxicity) LOLPE PRE
SMILES,"pest or weed control at 250 g/ha [1, 5] [%]","pest or weed control at 250 g/ha [1, 6] [%]","pest or weed control at 250 g/ha [2, 7] [%]","pest or weed control at 250 g/ha [2, 8] [%]","pest or weed control at 250 g/ha [3, 9] [%]","pest or weed control at 250 g/ha [3, 10] [%]","pest or weed control at 250 g/ha [4, 11] [%]","pest or weed control at 250 g/ha [4, 12] [%]","pest or weed control at 250 g/ha [1, 13] [%]","pest or weed control at 250 g/ha [1, 14] [%]","pest or weed control at 250 g/ha [2, 15] [%]","pest or weed control at 250 g/ha [2, 16] [%]","pest or weed control at 250 g/ha [3, 17] [%]","pest or weed control at 250 g/ha [3, 18] [%]","pest or weed control at 250 g/ha [4, 19] [%]","pest or weed control at 250 g/ha [4, 20] [%]",further results
COCCCNC(=O)CC1CC(OC(=O)C(C)(C)C)=C(c2c(C)cc(C)cc2C)C1=O (centres unmarked) [Compound P10],90,90,90,60,90,90,90,90,,,,,,,,,
Cc1cc(C)c(C2C(=O)CC(CC(=O)NC3(C(F)(F)F)CC3)C2=O)c(C)c1 (centres unmarked) [Compound B138],,,,,,,,,,,,,,,,,"pest or weed control at 250 g/ha ([1]; post-emergence, 360 h, 250 g/ha, post-emergence, 15 DAA, visual assessment (100%=total damage, 0%=no damage), read-out: Post-emergence herbicidal activity (percentage phytotoxicity) ALOMY POST): 90%; pest or weed control at 250 g/ha ([1]; pre-emergence, 480 h, 250 g/ha, pre-emergence, 20 DAA, visual assessment (100%=total damage, 0%=no damage), read-out: Pre-emergence herbicidal activity (percentage phytotoxicity) ALOMY PRE): 80%; pest or weed control at 250 g/ha ([2]; post-emergence, 360 h, 250 g/ha, post-emergence, 15 DAA, visual assessment (100%=total damage, 0%=no damage), read-out: Post-emergence herbicidal activity (percentage phytotoxicity) AVEFA POST): 70%; pest or weed control at 250 g/ha ([2]; pre-emergence, 480 h, 250 g/ha, pre-emergence, 20 DAA, visual assessment (100%=total damage, 0%=no damage), read-out: Pre-emergence herbicidal activity (percentage phytotoxicity) AVEFA PRE): 0%; pest or weed control at 250 g/ha ([3]; post-emergence, 360 h, 250 g/ha, post-emergence, 15 DAA, visual assessment (100%=total damage, 0%=no damage), read-out: Post-emergence herbicidal activity (percentage phytotoxicity) ECHCG POST): 80%; pest or weed control at 250 g/ha ([3]; pre-emergence, 480 h, 250 g/ha, pre-emergence, 20 DAA, visual assessment (100%=total damage, 0%=no damage), read-out: Pre-emergence herbicidal activity (percentage phytotoxicity) ECHCG PRE): 90%; pest or weed control at 250 g/ha ([4]; post-emergence, 360 h, 250 g/ha, post-emergence, 15 DAA, visual assessment (100%=total damage, 0%=no damage), read-out: Post-emergence herbicidal activity (percentage phytotoxicity) LOLPE POST): 80%; pest or weed control at 250 g/ha ([4]; pre-emergence, 480 h, 250 g/ha, pre-emergence, 20 DAA, visual assessment (100%=total damage, 0%=no damage), read-out: Pre-emergence herbicidal activity (percentage phytotoxicity) LOLPE PRE): 70%"
Cc1cc(-c2ncc(Cl)cn2)cc(C)c1C1C(=O)CC(CC(=O)N(C)Cc2cccc(F)c2)C1=O (centres unmarked) [Compound B338],100,100,100,80,100,100,90,100,,,,,,,,,
Cc1cc(-c2ncc(Cl)cc2F)cc(C)c1C1C(=O)CC(CC(=O)NCc2cccc(C(F)(F)F)c2)C1=O (centres unmarked) [Compound A120],,,,,,,,,100,80,100,90,100,100,100,80,
CC#Cc1cc(C)c(C2C(=O)CC(CC(=O)NC(C)(C)CC)C2=O)c(CC)c1 (centres unmarked) [Compound A50],,,,,,,,,100,100,100,100,100,90,100,100,
Cc1cc(-c2ccc(F)cn2)cc(C)c1C1C(=O)CC(CC(=O)NCc2cccc(F)c2)C1=O (centres unmarked) [Compound B383],100,90,100,90,90,100,90,100,,,,,,,,,
CC#Cc1cc(C)c(C2C(=O)CC(CC(=O)NCc3ccc(C#N)cc3)C2=O)c(C)c1 (centres unmarked) [Compound B186],,,,,,,,,,,,,,,,,"pest or weed control at 250 g/ha [1, 21]: 90%; pest or weed control at 250 g/ha [1, 22]: 90%; pest or weed control at 250 g/ha [2, 23]: 90%; pest or weed control at 250 g/ha [2, 24]: 100%; pest or weed control at 250 g/ha [3, 25]: 100%; pest or weed control at 250 g/ha [3, 26]: 100%; pest or weed control at 250 g/ha [4, 27]: 90%; pest or weed control at 250 g/ha [4, 28]: 90%"
Cc1cccc(CNC(=O)CC2CC(=O)C(c3c(C)cc(C)cc3C)C2=O)c1 (centres unmarked) [Compound A88],,,,,,,,,70,90,10,0,80,70,100,100,
CC#Cc1cc(C)c(C2C(=O)CC(CC(=O)NCc3ccccc3)C2=O)c(C)c1 (centres unmarked) [Compound B185],,,,,,,,,,,,,,,,,"pest or weed control at 250 g/ha [1, 21]: 100%; pest or weed control at 250 g/ha [1, 22]: 80%; pest or weed control at 250 g/ha [2, 23]: 100%; pest or weed control at 250 g/ha [2, 24]: 60%; pest or weed control at 250 g/ha [3, 25]: 100%; pest or weed control at 250 g/ha [3, 26]: 100%; pest or weed control at 250 g/ha [4, 27]: 100%; pest or weed control at 250 g/ha [4, 28]: 70%"
COCCNC(=O)CC1CC(=O)C(c2c(C)cc(-n3cc(Cl)cn3)cc2C)C1=O (centres unmarked) [Compound A77],,,,,,,,,90,80,90,80,100,100,80,80,
